# Patent publication US20150005288A1, “SUBSTITUTED PHENYLIMIDAZOPYRAZOLES AND USE THEREOF” (Bayer Intellectual Property GmbH, priority 2012, published 2015)
# Where a name gives a salt, the structure may show the parent alone.
# Target: T1, intracellular domain of human Tie2 (GST fusion protein) (Homo sapiens, UniProt Q02763)
# T1 construct: intracellular domain of human Tie2 (amino acids 776-1124); made in house; host or cells: Baculovirus-infected insect cells (Hi5)
# Test: Tie2 kinase assay (Tie2-TR-FRET)
# Format: biochemical
# Settings: ATP concentration 1 mM, in some cases means of several independent determinations
# Summary of the method: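 GST fusion of human Tie2 intracellular domain (aa 776-1124, Hi5-expressed), ~30 ng/ml, pre-incubated 15 min with compound, then 1 mM ATP and 1 μM biotinylated peptide, 60 min at 22 °C, pH 7. TR-FRET (Eu anti-phosphotyrosine/streptavidin-XL665, 665/620 nm ratio). […] 20 μM–0.073 nM in duplicate; IC50 by 4-parameter fit.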
# T1 sequence (Q02763 776-1124): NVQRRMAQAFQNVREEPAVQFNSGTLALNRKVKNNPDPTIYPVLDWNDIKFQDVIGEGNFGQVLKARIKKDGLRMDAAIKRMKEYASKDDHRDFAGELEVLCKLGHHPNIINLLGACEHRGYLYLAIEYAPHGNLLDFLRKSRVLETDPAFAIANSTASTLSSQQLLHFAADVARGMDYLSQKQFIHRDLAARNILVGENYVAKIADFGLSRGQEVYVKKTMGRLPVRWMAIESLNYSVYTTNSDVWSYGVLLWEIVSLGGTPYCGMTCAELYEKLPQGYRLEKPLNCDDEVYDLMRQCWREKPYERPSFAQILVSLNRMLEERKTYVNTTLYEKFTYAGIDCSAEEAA
row,Structure (SMILES),IC50 [nM]
1,"Cc1cc(C)c(-n2ccn3nc(-c4cccnc4)cc23)cc1NC(=O)c1cccc(OC(C)(C)C)c1 [Example 134, 3-tert-Butoxy-N-{2,4-dimethyl-5-[6-(pyridin-3-yl)-1H-imidazo[1,2-b]pyrazol-1-yl]phenyl}-benzamide]",55
2,"CCOCCOc1cccc(C(=O)Nc2cc(-n3ccn4nc(-c5cccnc5)cc34)c(C)cc2C)c1 [Example 135, N-{2,4-Dimethyl-5-[6-(pyridin-3-yl)-1H-imidazo[1,2-b]pyrazol-1-yl]phenyl}-3-(2-ethoxyethoxy)-benzamide]",607
3,"Cc1cc(C)c(-n2ccn3nc(-c4cccnc4)cc23)cc1NC(=O)c1cccc(OCCO)c1 [Example 136, N-{2,4-Dimethyl-5-[6-(pyridin-3-yl)-1H-imidazo[1,2-b]pyrazol-1-yl]phenyl}-3-(2-hydroxyethoxy)benzamide]",687
4,"Cc1cc(C)c(-n2ccn3nc(-c4cccnc4)cc23)cc1NC(=O)c1cccc(OCCN(C)C)c1 [Example 137, 3-[2-(Dimethylamino)ethoxy]-N-{2,4-dimethyl-5-[6-(pyridin-3-yl)-1H-imidazo[1,2-b]pyrazol-1-yl]phenyl}benzamide]",409
5,"Cc1cc(C)c(-n2ccn3nc(-c4cccnc4)cc23)cc1NC(=O)c1cccc(N2CCC(F)(F)CC2)c1 [Example 138, 3-(4,4-Difluoropiperidin-1-yl)-N-{2,4-dimethyl-5-[6-(pyridin-3-yl)-1H-imidazo[1,2-b]pyrazol-1-yl]phenyl}benzamide]",65
6,"Cc1cc(C)c(-n2ccn3nc(-c4cccnc4)cc23)cc1NC(=O)c1cccc(C(C)(C)C(F)(F)F)c1 [Example 139, N-{2,4-Dimethyl-5-[6-(pyridin-3-yl)-1H-imidazo[1,2-b]pyrazol-1-yl]phenyl}-3-(1,1,1-trifluoro-2-methylpropan-2-yl)benzamide]",0.5
7,"Cc1cc(C)c(-n2ccn3nc(-c4cccnc4)cc23)cc1NC(=O)c1cccc(C2(C)COC2)c1 [Example 140, N-{2,4-Dimethyl-5-[6-(pyridin-3-yl)-1H-imidazo[1,2-b]pyrazol-1-yl]phenyl}-3-(3-methyloxetan-3-yl)benzamide]",0.5
8,"Cc1cc(C)c(-n2ccn3nc(-c4cccnc4)cc23)cc1NC(=O)c1cccc(C(C)(C)O)c1 [Example 141, N-{2,4-Dimethyl-5-[6-(pyridin-3-yl)-1H-imidazo[1,2-b]pyrazol-1-yl]phenyl}-3-(2-hydroxypropan-2-yl)benzamide]",62
9,"Cc1cc(C)c(-n2ccn3nc(-c4cccnc4)cc23)cc1NC(=O)c1cccc(C(C)(C)F)c1 [Example 142, N-{2,4-Dimethyl-5-[6-(pyridin-3-yl)-1H-imidazo[1,2-b]pyrazol-1-yl]phenyl}-3-(2-fluoropropan-2-yl)benzamide]",0.9
10,"Cc1cc(C)c(-n2ccn3nc(-c4cccnc4)cc23)cc1NC(=O)c1cc(N2CCCCC2)cc(S(F)(F)(F)(F)F)c1 [Example 143, N-{2,4-Dimethyl-5-[6-(pyridin-3-yl)-1H-imidazo[1,2-b]pyrazol-1-yl]phenyl}-3-(pentafluoro-λ^6-sulphanyl)-5-(piperidin-1-yl)benzamide]",1.3
11,"Cc1cc(C)c(-n2ccn3nc(-c4cccnc4)cc23)cc1NC(=O)c1cc(N2CCC(C#N)CC2)cc(S(F)(F)(F)(F)F)c1 [Example 144, 3-(4-Cyanopiperidin-1-yl)-N-{2,4-dimethyl-5-[6-(pyridin-3-yl)-1H-imidazo[1,2-b]pyrazol-1-yl]-phenyl}-5-(pentafluoro-λ^6-sulphanyl)benzamide]",0.6
12,"COC1CCN(c2cc(C(=O)Nc3cc(-n4ccn5nc(-c6cccnc6)cc45)c(C)cc3C)cc(S(F)(F)(F)(F)F)c2)CC1 [Example 145, N-{2,4-Dimethyl-5-[6-(pyridin-3-yl)-1H-imidazo[1,2-b]pyrazol-1-yl]phenyl}-3-(4-methoxypiperidin-1-yl)-5-(pentafluoro-λ^6-sulphanyl)benzamide]",0.9
13,"COC1CN(c2cc(C(=O)Nc3cc(-n4ccn5nc(-c6cccnc6)cc45)c(C)cc3C)cc(S(F)(F)(F)(F)F)c2)C1 [Example 146, N-{2,4-Dimethyl-5-[6-(pyridin-3-yl)-1H-imidazo[1,2-b]pyrazol-1-yl]phenyl}-3-(3-methoxyazetidin-1-yl)-5-(pentafluoro-λ^6-sulphanyl)benzamide]",0.7
14,"Cc1cc(C)c(-n2ccn3nc(-c4cccnc4)cc23)cc1NC(=O)c1cc(C#N)cc(S(F)(F)(F)(F)F)c1 [Example 147, 3-Cyano-N-{2,4-dimethyl-5-[6-(pyridin-3-yl)-1H-imidazo[1,2-b]pyrazol-1-yl]phenyl}-5-(pentafluoro-λ^6-sulphanyl)benzamide dihydrochloride]",0.2
15,"Cc1cc(C)c(-n2ccn3nc(-c4cccnc4)cc23)cc1NC(=O)c1cc(C(C)(C)O)cc(S(F)(F)(F)(F)F)c1 [Example 148, N-{2,4-Dimethyl-5-[6-(pyridin-3-yl)-1H-imidazo[1,2-b]pyrazol-1-yl]phenyl}-3-(2-hydroxypropan-2-yl)-5-(pentafluoro-λ^6-sulphanyl)benzamide]",0.4
16,"Cc1cc(C)c(-n2ccn3nc(-c4cccnc4)cc23)cc1NC(=O)c1cc(C(C)(C)F)cc(S(F)(F)(F)(F)F)c1 [Example 149, N-{2,4-Dimethyl-5-[6-(pyridin-3-yl)-1H-imidazo[1,2-b]pyrazol-1-yl]phenyl}-3-(2-fluoropropan-2-yl)-5-(pentafluoro-λ^6-sulphanyl)benzamide]",2.3
17,"Cc1cc(C)c(-n2ccn3nc(-c4cccnc4)cc23)cc1NC(=O)c1cc(CC(=O)OC(C)(C)C)cc(S(F)(F)(F)(F)F)c1 [Example 150, tert-Butyl [3-({2,4-dimethyl-5-[6-(pyridin-3-yl)-1H-imidazo[1,2-b]pyrazol-1-yl]phenyl}-carbamoyl)-5-(pentafluoro-λ^6-sulphanyl)phenyl]acetate]",2.4
18,"Cc1cc(C)c(-n2ccn3nc(-c4cccnc4)cc23)cc1NC(=O)c1cc(CC(=O)O)cc(S(F)(F)(F)(F)F)c1 [Example 151, [3-({2,4-Dimethyl-5-[6-(pyridin-3-yl)-1H-imidazo[1,2-b]pyrazol-1-yl]phenyl}carbamoyl)-5-(pentafluoro-λ^6-sulphanyl)phenyl]acetic acid]",6.1
19,"COC(=O)Cc1cc(C(=O)Nc2cc(-n3ccn4nc(-c5cccnc5)cc34)c(C)cc2C)cc(S(F)(F)(F)(F)F)c1 [Example 152, Methyl [3-({2,4-dimethyl-5-[6-(pyridin-3-yl)-1H-imidazo[1,2-b]pyrazol-1-yl]phenyl}carbamoyl)-5-(pentafluoro-λ^6-sulphanyl)phenyl]acetate]",0.4
20,"Cc1cc(C)c(-n2ccn3nc(-c4cccnc4)cc23)cc1NC(=O)c1cc(CC(N)=O)cc(S(F)(F)(F)(F)F)c1 [Example 153, 3-(2-Amino-2-oxoethyl)-N-{2,4-dimethyl-5-[6-(pyridin-3-yl)-1H-imidazo[1,2-b]pyrazol-1-yl]-phenyl}-5-(pentafluoro-λ^6-sulphanyl)benzamide]",0.3
21,"Cc1cc(C)c(-n2ccn3nc(-c4cccnc4)cc23)cc1NC(=O)c1cc(CC(C)(C)O)cc(S(F)(F)(F)(F)F)c1 [Example 154, N-{2,4-Dimethyl-5-[6-(pyridin-3-yl)-1H-imidazo[1,2-b]pyrazol-1-yl]phenyl}-3-(2-hydroxy-2-methylpropyl)-5-(pentafluoro-λ^6-sulphanyl)benzamide]",0.4
22,"COCCOCc1cc(C(=O)Nc2cc(-n3ccn4nc(-c5cccnc5)cc34)c(C)cc2C)cc(S(F)(F)(F)(F)F)c1 [Example 155, N-{2,4-Dimethyl-5-[6-(pyridin-3-yl)-1H-imidazo[1,2-b]pyrazol-1-yl]phenyl}-3-[(2-methoxy-ethoxy)methyl]-5-(pentafluoro-λ^6-sulphanyl)benzamide]",0.7
23,"Cc1ccc(NC(=O)c2cc(C#N)cc(S(F)(F)(F)(F)F)c2)c(O)c1-n1ccn2nc(-c3cccnc3)cc12 [Example 156, 3-Cyano-N-{2-hydroxy-4-methyl-3-[6-(pyridin-3-yl)-1H-imidazo[1,2-b]pyrazol-1-yl]phenyl}-5-(pentafluoro-λ^6-sulphanyl)benzamide]",5.9
24,"Cc1ccc(NC(=O)c2cccc(S(F)(F)(F)(F)F)c2)cc1-n1ccn2nc(-c3cccnc3)c(F)c12 [Example 158, N-{3-[7-Fluoro-6-(pyridin-3-yl)-1H-imidazo[1,2-b]pyrazol-1-yl]-4-methylphenyl}-3-(pentafluoro-λ^6-sulphanyl)benzamide]",58
25,"Cc1ccc(NC(=O)c2cc(C#N)cc(S(F)(F)(F)(F)F)c2)cc1-n1ccn2nc(-c3cccnc3)c(F)c12 [Example 159, 3-Cyano-N-{3-[7-fluoro-6-(pyridin-3-yl)-1H-imidazo[1,2-b]pyrazol-1-yl]-4-methylphenyl}-5-(pentafluoro-λ^6-sulphanyl)benzamide]",10
26,"Cc1ccc(NC(=O)c2cc(C(C)(C)O)cc(S(F)(F)(F)(F)F)c2)cc1-n1ccn2nc(-c3cccnc3)c(F)c12 [Example 160, N-{3-[7-Fluoro-6-(pyridin-3-yl)-1H-imidazo[1,2-b]pyrazol-1-yl]-4-methylphenyl}-3-(2-hydroxypropan-2-yl)-5-(pentafluoro-λ^6-sulphanyl)benzamide]",1
27,"Cc1ccc(NC(=O)c2cccc(S(F)(F)(F)(F)F)c2)cc1-n1ccn2nc(-c3cncnc3)cc12 [Example 163, N-{4-Methyl-3-[6-(pyrimidin-5-yl)-1H-imidazo[1,2-b]pyrazol-1-yl]phenyl}-3-(pentafluoro-λ^6-sulphanyl)benzamide]",8.9
28,"Cc1cc(C)c(-n2ccn3nc(-c4cncnc4)cc23)cc1NC(=O)c1cccc(S(F)(F)(F)(F)F)c1 [Example 164, N-{2,4-Dimethyl-5-[6-(pyrimidin-5-yl)-1H-imidazo[1,2-b]pyrazol-1-yl]phenyl}-3-(pentafluoro-λ^6-sulphanyl)benzamide]",0.4
